Source: paper PMC11831560, “Development of the Pyrido[2,3-d]pyrimidin-7(8H)-one Scaffold toward Potent and Selective NUAK1 Inhibitors” (ACS Medicinal Chemistry Letters, 2025)
“And” between values parts separate entries of the source, which are not always exact repeats. Equal entries are not always repeated.

What was measured:
Assay in all cases: Kinase panel radiometric filter binding (33P-ATP)
Format in all cases: biochemical
Aurora A = Aurora A (Homo sapiens, UniProt O14965); parameters: dose or concentration left out as unconfirmed
Method: (§1) Table S4: AMPKA kinase activity data (ADP-Glo assay)
(§2) Compound pIC50 (Fold selectivity
(§3) Table S5. Kinase selectivity screening for 9 and 24 at 1 µM against a general kinase panel of 140 targets
(§4) in radiometric filter binding assay using 33P-γ−ATP at the MRC PPU International Centre for Kinase
(§5) Profiling, University of Dundee. pIC50 values were determined for compounds with <20% activity
(§6) Kinase activity s.d. pIC50 activity s.d. pIC50

Aurora B = Aurora B (Homo sapiens, UniProt Q96GD4); parameters: dose or concentration left out as unconfirmed
Sequence of Aurora B (Q96GD4 whole entry): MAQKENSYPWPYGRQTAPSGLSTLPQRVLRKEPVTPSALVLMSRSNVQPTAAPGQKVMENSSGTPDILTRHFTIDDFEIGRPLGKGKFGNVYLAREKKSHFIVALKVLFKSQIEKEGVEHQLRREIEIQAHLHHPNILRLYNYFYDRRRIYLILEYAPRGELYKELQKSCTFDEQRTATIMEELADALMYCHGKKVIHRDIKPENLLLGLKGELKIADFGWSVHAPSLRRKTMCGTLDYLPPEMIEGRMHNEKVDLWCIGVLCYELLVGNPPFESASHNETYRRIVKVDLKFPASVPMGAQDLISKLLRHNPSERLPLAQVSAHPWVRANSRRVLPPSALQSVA
Method: as §1, §2, §3, §4, §5, §6

DYRK1A = DYRK1A (Homo sapiens, UniProt Q13627); parameters: dose or concentration left out as unconfirmed
Method: as §1, §2, §3, §4, §5, §6

IRAK1 = IRAK1 (Homo sapiens, UniProt P51617); parameters: dose or concentration left out as unconfirmed
Method: as §1, §2, §3, §4, §5, §6

PHK = tested on: PHK; parameters: dose or concentration left out as unconfirmed
Method: as §1, §2, §3, §4, §5, §6

PIM3 = PIM3 (Homo sapiens, UniProt Q86V86); parameters: dose or concentration left out as unconfirmed
Method: as §1, §2, §3, §4, §5, §6

RIPK2 = RIPK2 (Homo sapiens, UniProt O43353); parameters: dose or concentration left out as unconfirmed
Method: as §1, §2, §3, §4, §5, §6

TBK1 = TBK1 (Homo sapiens, UniProt Q9UHD2)
Sequence of TBK1 (Q9UHD2 whole entry): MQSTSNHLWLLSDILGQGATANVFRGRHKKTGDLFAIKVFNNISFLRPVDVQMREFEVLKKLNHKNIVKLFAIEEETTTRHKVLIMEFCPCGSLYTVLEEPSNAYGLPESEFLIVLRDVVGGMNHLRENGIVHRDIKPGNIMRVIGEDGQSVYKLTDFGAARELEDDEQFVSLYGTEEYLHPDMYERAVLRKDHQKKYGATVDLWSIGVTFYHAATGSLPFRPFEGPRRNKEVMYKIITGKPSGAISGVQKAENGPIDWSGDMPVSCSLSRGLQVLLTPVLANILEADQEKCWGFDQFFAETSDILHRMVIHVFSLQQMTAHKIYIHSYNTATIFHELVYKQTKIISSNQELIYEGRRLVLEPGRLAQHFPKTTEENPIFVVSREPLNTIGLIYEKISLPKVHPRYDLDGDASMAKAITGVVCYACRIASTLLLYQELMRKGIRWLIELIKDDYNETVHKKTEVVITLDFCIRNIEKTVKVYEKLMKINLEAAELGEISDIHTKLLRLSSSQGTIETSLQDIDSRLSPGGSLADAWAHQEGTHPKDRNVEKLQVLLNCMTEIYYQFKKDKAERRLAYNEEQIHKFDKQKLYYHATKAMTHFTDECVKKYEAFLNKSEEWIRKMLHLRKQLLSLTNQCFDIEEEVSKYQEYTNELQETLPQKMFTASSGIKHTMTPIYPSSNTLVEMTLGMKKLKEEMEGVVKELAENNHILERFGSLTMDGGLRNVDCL
Method: as §1, §2, §3, §4, §5, §6

TLK1 = TLK1 (Homo sapiens, UniProt Q9UKI8)
Method: as §1, §2, §3, §4, §5, §6

p38g MAPK = p38g MAPK (Homo sapiens, UniProt P53778)
Method: as §1, §2, §3, §4, §5, §6

IGF-1R = IGF-1R (Homo sapiens, UniProt P08069); parameters: % activity remaining: dose or concentration left out as unconfirmed; details: for % activity remaining: IGF-1R
Sequence of IGF-1R (P08069 31-1367, species assumed): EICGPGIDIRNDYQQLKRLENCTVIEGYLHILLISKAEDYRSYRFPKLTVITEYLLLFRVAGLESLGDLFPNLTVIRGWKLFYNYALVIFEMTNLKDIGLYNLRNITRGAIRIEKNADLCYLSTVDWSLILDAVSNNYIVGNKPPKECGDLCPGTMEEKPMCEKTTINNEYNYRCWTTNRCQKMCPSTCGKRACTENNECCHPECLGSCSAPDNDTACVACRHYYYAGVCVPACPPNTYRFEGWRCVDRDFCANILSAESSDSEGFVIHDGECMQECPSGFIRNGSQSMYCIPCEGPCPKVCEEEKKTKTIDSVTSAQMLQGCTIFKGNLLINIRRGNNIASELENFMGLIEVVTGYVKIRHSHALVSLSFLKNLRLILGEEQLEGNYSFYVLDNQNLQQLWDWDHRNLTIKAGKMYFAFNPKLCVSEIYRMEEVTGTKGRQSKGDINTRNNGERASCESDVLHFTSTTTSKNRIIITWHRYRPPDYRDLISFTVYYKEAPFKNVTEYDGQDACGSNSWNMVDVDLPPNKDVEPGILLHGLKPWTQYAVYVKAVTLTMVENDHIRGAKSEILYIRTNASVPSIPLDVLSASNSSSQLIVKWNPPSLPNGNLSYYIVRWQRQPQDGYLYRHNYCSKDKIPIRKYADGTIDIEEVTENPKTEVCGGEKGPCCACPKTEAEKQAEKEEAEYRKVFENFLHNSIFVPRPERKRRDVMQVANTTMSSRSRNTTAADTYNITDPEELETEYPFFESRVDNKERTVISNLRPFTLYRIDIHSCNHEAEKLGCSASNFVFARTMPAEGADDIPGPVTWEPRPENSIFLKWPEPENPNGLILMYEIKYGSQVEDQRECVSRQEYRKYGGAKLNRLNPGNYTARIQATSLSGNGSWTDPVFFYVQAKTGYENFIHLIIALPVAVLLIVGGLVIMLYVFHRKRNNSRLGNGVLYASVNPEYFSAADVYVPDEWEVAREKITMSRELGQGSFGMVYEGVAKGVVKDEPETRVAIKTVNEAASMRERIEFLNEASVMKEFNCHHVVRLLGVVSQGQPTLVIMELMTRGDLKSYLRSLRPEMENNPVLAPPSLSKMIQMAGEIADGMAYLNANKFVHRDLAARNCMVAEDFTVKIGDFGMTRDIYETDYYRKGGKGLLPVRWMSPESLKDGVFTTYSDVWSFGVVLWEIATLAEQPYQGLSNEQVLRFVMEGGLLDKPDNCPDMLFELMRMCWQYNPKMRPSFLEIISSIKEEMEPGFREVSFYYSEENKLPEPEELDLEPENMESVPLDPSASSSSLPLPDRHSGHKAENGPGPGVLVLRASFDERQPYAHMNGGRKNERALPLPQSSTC
Method: as §1, §2, §3, §4, §5, §6

MAP4K5 = MAP4K5 (Homo sapiens, UniProt Q9Y4K4); parameters: % activity remaining: dose or concentration left out as unconfirmed; details: for % activity remaining: MAP4K5
Sequence of MAP4K5 (Q9Y4K4 whole entry, species assumed): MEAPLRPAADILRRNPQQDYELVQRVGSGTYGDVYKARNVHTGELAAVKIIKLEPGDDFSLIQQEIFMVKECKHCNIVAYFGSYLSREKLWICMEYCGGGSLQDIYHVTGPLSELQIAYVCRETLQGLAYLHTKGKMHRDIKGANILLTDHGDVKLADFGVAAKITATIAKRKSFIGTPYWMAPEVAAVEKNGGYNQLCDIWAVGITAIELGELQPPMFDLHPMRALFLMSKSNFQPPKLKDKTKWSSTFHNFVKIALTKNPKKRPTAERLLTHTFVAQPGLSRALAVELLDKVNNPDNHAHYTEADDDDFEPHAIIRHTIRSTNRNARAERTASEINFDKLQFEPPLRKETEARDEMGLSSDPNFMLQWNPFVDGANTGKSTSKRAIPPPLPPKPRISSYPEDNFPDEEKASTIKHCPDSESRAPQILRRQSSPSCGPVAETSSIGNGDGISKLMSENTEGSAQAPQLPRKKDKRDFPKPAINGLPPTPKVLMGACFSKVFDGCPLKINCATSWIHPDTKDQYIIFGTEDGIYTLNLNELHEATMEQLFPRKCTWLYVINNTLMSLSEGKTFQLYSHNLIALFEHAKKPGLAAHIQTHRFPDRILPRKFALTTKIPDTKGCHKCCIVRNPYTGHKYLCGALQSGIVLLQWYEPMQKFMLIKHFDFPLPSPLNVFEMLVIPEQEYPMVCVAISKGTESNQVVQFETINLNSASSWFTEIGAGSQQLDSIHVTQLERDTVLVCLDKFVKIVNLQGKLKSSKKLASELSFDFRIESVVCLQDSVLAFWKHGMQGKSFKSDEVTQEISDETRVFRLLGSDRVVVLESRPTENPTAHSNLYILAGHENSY
Method: as §1, §2, §3, §4, §5, §6

MARK1 = target: T1, MARK1 (Homo sapiens, UniProt Q9P0L2); parameters: % activity remaining: dose or concentration left out as unconfirmed; details: for % activity remaining: MARK1
T1 construct: purchased MRC PPU
T1 sequence (Q9P0L2 whole entry): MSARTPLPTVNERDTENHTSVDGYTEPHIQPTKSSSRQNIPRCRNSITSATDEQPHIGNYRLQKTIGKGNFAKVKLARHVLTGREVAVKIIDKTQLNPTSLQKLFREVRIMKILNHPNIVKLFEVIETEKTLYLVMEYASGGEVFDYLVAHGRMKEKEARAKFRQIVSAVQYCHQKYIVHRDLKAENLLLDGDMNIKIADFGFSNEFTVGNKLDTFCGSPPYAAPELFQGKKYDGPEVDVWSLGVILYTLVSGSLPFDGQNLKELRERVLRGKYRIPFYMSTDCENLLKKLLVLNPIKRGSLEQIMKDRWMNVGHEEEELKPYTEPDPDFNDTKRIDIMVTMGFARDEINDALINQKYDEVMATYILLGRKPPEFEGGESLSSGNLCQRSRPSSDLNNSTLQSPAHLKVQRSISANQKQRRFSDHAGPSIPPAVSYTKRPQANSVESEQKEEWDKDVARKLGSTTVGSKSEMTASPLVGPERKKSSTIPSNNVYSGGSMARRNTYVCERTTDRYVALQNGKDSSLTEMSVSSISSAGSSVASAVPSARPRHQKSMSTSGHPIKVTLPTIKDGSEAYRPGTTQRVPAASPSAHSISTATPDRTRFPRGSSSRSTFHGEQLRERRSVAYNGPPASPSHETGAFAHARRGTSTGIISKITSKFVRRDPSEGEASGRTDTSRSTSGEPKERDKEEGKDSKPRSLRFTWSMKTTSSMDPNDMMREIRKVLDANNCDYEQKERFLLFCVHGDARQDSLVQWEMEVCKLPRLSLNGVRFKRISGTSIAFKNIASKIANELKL
Method: as §1, §2, §3, §4, §5, §6

MARK2 = target: T2, MARK2 (Homo sapiens, UniProt Q7KZI7); parameters: % activity remaining: dose or concentration left out as unconfirmed; details: for % activity remaining: MARK2
T2 construct: purchased MRC PPU
T2 sequence (Q7KZI7 whole entry): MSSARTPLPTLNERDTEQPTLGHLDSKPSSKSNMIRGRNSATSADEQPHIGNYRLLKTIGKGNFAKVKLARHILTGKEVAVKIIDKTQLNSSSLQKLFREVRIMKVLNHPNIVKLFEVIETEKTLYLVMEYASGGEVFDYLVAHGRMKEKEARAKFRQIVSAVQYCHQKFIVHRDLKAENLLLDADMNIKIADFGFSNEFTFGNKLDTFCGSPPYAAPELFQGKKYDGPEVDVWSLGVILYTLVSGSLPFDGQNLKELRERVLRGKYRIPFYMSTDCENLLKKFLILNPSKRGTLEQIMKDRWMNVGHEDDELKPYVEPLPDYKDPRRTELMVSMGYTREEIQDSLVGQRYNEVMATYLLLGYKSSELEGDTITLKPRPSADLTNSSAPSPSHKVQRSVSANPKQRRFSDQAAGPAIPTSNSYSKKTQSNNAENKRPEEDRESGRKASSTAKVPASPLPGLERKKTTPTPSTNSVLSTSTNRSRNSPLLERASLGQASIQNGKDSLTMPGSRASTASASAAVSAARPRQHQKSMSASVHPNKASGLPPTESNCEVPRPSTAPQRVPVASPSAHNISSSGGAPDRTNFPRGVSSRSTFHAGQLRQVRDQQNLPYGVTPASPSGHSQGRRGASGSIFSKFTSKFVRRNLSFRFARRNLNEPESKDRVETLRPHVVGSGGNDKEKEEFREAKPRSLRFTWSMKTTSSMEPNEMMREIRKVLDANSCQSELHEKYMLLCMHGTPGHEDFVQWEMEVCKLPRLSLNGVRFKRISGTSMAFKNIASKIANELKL
Method: as §1, §2, §3, §4, §5, §6

ULK2 = target: T3, ULK2 (Homo sapiens, UniProt Q8IYT8); parameters: % activity remaining: dose or concentration left out as unconfirmed; details: for % activity remaining: ULK2
T3 sequence (Q8IYT8 1-1036): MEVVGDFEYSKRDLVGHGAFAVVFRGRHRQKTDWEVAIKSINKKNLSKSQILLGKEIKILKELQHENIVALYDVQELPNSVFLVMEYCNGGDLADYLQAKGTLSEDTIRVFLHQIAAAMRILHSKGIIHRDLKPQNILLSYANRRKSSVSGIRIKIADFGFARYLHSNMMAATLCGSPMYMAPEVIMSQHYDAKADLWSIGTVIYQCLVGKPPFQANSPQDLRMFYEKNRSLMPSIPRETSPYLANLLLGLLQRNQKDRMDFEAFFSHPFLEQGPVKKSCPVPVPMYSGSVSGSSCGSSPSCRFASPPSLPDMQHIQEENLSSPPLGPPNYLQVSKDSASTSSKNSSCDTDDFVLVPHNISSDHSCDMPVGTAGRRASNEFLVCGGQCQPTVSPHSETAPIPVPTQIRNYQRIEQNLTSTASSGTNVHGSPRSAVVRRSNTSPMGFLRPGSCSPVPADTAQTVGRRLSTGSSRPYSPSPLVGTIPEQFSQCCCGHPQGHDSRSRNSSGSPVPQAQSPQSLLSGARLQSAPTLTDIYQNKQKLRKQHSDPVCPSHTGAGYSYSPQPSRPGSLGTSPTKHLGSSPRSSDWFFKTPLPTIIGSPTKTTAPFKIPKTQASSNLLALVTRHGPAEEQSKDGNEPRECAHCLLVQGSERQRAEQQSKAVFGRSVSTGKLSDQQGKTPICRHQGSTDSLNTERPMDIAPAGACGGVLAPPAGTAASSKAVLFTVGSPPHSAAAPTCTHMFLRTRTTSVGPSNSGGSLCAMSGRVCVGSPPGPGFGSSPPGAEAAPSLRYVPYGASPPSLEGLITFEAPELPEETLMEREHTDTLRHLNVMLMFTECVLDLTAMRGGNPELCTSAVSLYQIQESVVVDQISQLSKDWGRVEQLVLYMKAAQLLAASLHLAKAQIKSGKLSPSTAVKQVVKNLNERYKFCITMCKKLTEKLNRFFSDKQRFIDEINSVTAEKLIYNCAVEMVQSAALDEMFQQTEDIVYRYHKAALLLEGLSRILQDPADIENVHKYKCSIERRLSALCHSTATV
Method: as §1, §2, §3, §4, §5, §6

VEG-FR = target: T4, VEG-FR (Homo sapiens, UniProt P17948); parameters: % activity remaining: dose or concentration left out as unconfirmed; details: for % activity remaining: VEG-FR
T4 sequence (P17948 784-1338 limits assumed): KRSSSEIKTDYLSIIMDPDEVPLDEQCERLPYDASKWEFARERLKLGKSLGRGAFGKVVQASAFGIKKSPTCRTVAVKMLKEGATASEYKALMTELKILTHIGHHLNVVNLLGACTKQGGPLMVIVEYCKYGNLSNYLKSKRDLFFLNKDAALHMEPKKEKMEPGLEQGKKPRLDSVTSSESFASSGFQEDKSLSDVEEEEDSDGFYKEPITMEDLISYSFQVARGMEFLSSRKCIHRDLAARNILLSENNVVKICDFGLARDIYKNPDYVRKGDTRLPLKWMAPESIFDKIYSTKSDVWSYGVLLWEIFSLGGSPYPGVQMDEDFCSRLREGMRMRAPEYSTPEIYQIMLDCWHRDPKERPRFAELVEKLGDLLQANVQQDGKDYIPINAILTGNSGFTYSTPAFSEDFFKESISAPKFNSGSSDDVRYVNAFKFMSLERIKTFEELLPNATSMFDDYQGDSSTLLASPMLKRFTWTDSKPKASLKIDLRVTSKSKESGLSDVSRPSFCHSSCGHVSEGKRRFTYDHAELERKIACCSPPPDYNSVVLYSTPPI
Method: as §1, §2, §3, §4, §5, §6

[1] = radiometric filter binding panel

SMILES | % activity remaining (Aurora A) | % activity remaining (Aurora B) | % activity remaining (DYRK1A) | % activity remaining (IRAK1) | % activity remaining (PHK) | % activity remaining (PIM3) | % activity remaining (RIPK2) | % activity remaining (TBK1) | % activity remaining (TLK1) | % activity remaining (p38g MAPK) | % activity remaining (IGF-1R) | % activity remaining (MAP4K5) | % activity remaining (MARK1) | % activity remaining (MARK2) | % activity remaining (ULK2) | % activity remaining (VEG-FR) | other results
CN1C2CC1CN(c1ccc(Nc3ncc4ccn(CC5CCOCC5)c4n3)cc1)C2 [Compound 24] | 54% | 64% | 141% | 71% | 92% | 56% | 73% | 41% | 86% | 92% | 104% | 78% | 94% | 101% | 75% | 17% | IC50 (VEG-FR; radiometric filter binding panel, read-out: VEG-FR pIC50 (converted)): 295 nM
Cc1cc(=O)n(C2CCCC2)c2nc(Nc3ccc(N4CC5CC(C4)N5C)cc3)ncc12 [Compound 9] | 52% | 61% | 78% | 75% | 56% | 80% | 78% | 66% | 59% | 97% | 18% | 14% | 56% | 98% | 17% | 71% | IC50 (IGF-1R; radiometric filter binding panel, read-out: IGF-1R pIC50 (converted)): 1050 nM; MAP4K5 pIC50 (MAP4K5; [1]): > 7; IC50 (MAP4K5; radiometric filter binding panel, read-out: MAP4K5 pIC50 (converted)): 110 nM; inhibition at 1 µM (MARK1; at 1 μM, radiometric filter binding assay, Dundee, read-out: MARK1 single point % inhibition): 44%; inhibition at 1 µM (MARK2; at 1 μM, radiometric filter binding assay, Dundee, read-out: MARK2 single point % inhibition): 2%; ULK2 pIC50 (ULK2; [1]): 7.4 and 7.39
